test: n-octanol/water partition coefficient LogP (JIS Z 7260-117); conditions: n-octanol/water

Point of comparison: C=CC(=O)OCC(CC)CCCC (stereo not drawn) [2-ethylhexyl acrylate], chromatographic logP 4.2. Against it:
- C=CC(=O)OCCO [2-hydroxyethyl acrylate] — lower, 0.01
- C=C(C)C(=O)OCCO [2-hydroxyethyl methacrylate] — lower, 0.43
- C=CC(=O)OCCCCO [4-hydroxybutyl acrylate] — lower, 0.59
- C=C(C)C(=O)NCCO [N-hydroxyethylmethacrylamide] — lower, -0.95
- C=C(C)C(=O)NCO [N-hydroxymethylmethacrylamide] — lower, -0.96
- C=CC(=O)NC [N-methylacrylamide] — lower, -0.59
- C=CC(N)=O [acrylamide] — lower, -0.56
- C=CC(=O)OC1CCCCC1 [cyclohexyl acrylate] — lower, 2.76
- C=C(C)C(=O)OC1CCCCC1 [cyclohexyl methacrylate] — lower, 3.18
- C=CC(=O)OCC(C)C [isobutyl acrylate] — lower, 2.16
- C=CC(=O)OC [methyl acrylate] — lower, 0.8
- C=C(C)C(=O)OC [methyl methacrylate] — lower, 1.38
- C=CC(=O)OCCCC [n-butyl acrylate] — lower, 2.32
- C=C(C)C(=O)OCCCC [n-butyl methacrylate] — lower, 2.74
- C=C(C)C(=O)OCCCCCCCCCCCCCCCCCC [stearyl methacrylate] — higher, 9.87
- C=CC(=O)OC(C)(C)C [tert-butyl acrylate] — lower, 2.06

same assay, conditions: n-octanol/water partition coefficient

Point of comparison: C=C(C)C(=O)OC1CC2CCC1(C)C2(C)C (stereo not drawn) [isoboronyl methacrylate], LogP 4.45. Against it:
- C=CC(=O)OC1CC2CCC1(C)C2(C)C (stereo not drawn) [isoboronyl acrylate] — lower, 4.03

For C=CC(=O)OCCCC [n-butyl acrylate], the LogP was “Acrylic acid-n butyl (E-1) LogP = 2.32”.

same assay, conditions: n-octanol/water, LogP, n-octanol/water partition coefficient

Point of comparison: C=C(C)C(=O)OCCC [n-propyl methacrylate], chromatographic logP 2.23. Against it:
- C=CC(=O)OCC(C)O (stereo not drawn) [2-hydroxypropyl acrylate] — lower, 0.36
- C=C(C)C(=O)OCC(C)O (stereo not drawn) [2-hydroxypropyl methacrylate] — lower, 0.78
- C=C(C)C(=O)NCC(C)O (stereo not drawn) [N-(2-Hydroxypropyl) methacrylamide] — lower, 0.95
- C=CC(=O)NCC(C)O (stereo not drawn) [N-(2-hydroxypropyl) acrylamide] — lower, -1.37
- C=CC(=O)NCCN(C)C [N-(dimethylaminoethyl) acrylamide] — lower, -0.28
- C=CC(=O)NCN(C)C [N-(dimethylaminomethyl) acrylamide] — lower, -0.47
- C=CC(=O)NCCCN(C)C [N-(dimethylaminopropyl) acrylamide] — lower, -0.24
- C=C(C)C(=O)NCC [N-ethylmethacrylamide] — lower, 0.34
- C=C(C)C(=O)NC(C)C [N-isopropylmethacrylamide] — lower, 0.7
- C=C(C)C(=O)NC [N-methylmethacrylamide] — lower, -0.17
- C=CC(=O)NCCC [N-propylacrylamide] — lower, 0.43
- C/C=C/C(=O)O [crotonic acid] — lower, 0.66
- C=CC(=O)OCC [ethyl acrylate] — lower, 1.32
- O=C(O)/C=C/C(=O)O [fumaric acid] — lower, -0.45
- C=C(C)C(=O)OCC(C)C [isobutyl methacrylate] — higher, 2.58
- C=C(C)C(=O)OC(C)C [isopropyl methacrylate] — within 0.2 log units, 2.07
- C=C(CC(=O)O)C(=O)O [itaconic acid] — lower, -0.08
- O=C(O)/C=C\C(=O)O [maleic acid] — lower, -0.45
- C=C(C)C(N)=O [methacrylamide] — lower, -0.14
- C=CC(=O)OCCCCCCCCCCCCCCCCCC [stearyl acrylate] — higher, 9.45
- C=C(C)C(=O)OC(C)(C)C [tert-butyl methacrylate] — higher, 2.48
- C=CC(=O)OCCC(=O)O [β-carboxyethyl acrylate] — lower, 0.31

test: physchem; conditions: not given

With C=CC(=O)NC(C)(C)CC(C)=O [diacetone acrylamide] the chromatographic logP was 0.04.

same assay, conditions: LogP

Point of comparison: C=CC(=O)N(C)C [N, N-dimethylacrylamide], chromatographic logP -0.14. Against it:
- C=C(C)C(=O)OCC(CC)CCCC (stereo not drawn) [2-ethylhexyl methacrylate] — higher, 4.62
- C=CC(=O)NCC [N-ethylacrylamide] — within 0.2 log units, -0.08
- C=CC(=O)NCO [N-hydroxymethylacrylamide] — lower, -1.38

Source: patent EP3831859A1, “COPOLYMER FOR ELECTRODE BINDER AND LITHIUM ION SECONDARY BATTERY” (SHOWA DENKO K.K., priority 2019, dated 2021)
